Experimental data taken from patent US5294611A, “Angiotensin II receptor blocking 2,3,6 substituted quinazolinones” (American Cyanamid Company, priority 1993, dated 1994).
Like-named read-outs stand apart in the source and are kept apart here.

System: Angiotensin II (AII) vasopressor response
Assay: AII Challenge: antagonism of angiotensin II vasopressor response in conscious spontaneously hypertensive rats
Type: in vivo, rat (male okamoto-Aoki SHR)
Conditions: 3 mg/kg I.V.; for inhibition in vivo at 3 mg/kg: Rattus norvegicus, iv, read-out: Inhibition; for inhibition in vivo at 3 mg/kg / Average Change: SHR n=2; for Change: single SHR
From the text: Conscious Male okamoto-Aoki SHR, 16-20 weeks old, weighing approximately 330 g are purchased from Charles River Labs (Wilmington, Mass.). Conscious rats are restrained in a supine position with elastic tape. The area at the base of the tail is locally anesthetized by subcutaneous infiltration with 2% procaine. […] The cannula is secured, heparinized (1,000 I.U./ml), sealed and the wound is closed. The animals are placed in plastic restraining cages in an upright position. The cannula is attached to a Statham P23Db pressure transducer, and pulsatile blood pressure is recorded to 10-15 minutes with a Gould Brush recorder. […] Angiotensin II (human sequence, Sigma Chem. Co., St. Louis, Mo.) of 0.05 and 0.1 ug/kg i.v. is injected into all rats (predosing response). Then a test compound, vehicle or a known angiotensin II antagonist is administered i.v., i.p. or orally to each set of rats. […] The vasopressor response of angiotensin II is measured for the increase in systolic blood pressure in mmHg.

[1] = 0.5 h, AII 0.05 mcg/kg IV, 30 min post dose
[2] = 0.5 h, AII 0.1 mcg/kg IV, 30 min post dose
[3] = 1 h, AII 0.05 mcg/kg IV, 60 min post dose
[4] = 1 h, AII 0.1 mcg/kg IV, 60 min post dose
[5] = 2 h, AII 0.05 mcg/kg IV, 120 min post dose
[6] = 2 h, AII 0.1 mcg/kg IV, 120 min post dose
[7] = 3 h, AII 0.05 mcg/kg IV, 180 min post dose
[8] = 3 h, AII 0.1 mcg/kg IV, 180 min post dose
[9] = 4 h, AII 0.05 mcg/kg IV, 240 min post dose
[10] = 4 h, AII 0.1 mcg/kg IV, 240 min post dose
[11] = 5 h, AII 0.05 mcg/kg IV, 300 min post dose
[12] = 5 h, AII 0.1 mcg/kg IV, 300 min post dose
[13] = […], AII 0.05 mcg/kg IV, 90 min post dose
[14] = […], AII 0.1 mcg/kg IV, 90 min post dose
[15] = AII 0.05 mcg/kg IV, 30 min post dose
[16] = AII 0.05 mcg/kg IV, 60 min post dose
[17] = AII 0.05 mcg/kg IV, 90 min post dose
[18] = AII 0.05 mcg/kg IV, 120 min post dose
[19] = AII 0.05 mcg/kg IV, 180 min post dose
[20] = AII 0.05 mcg/kg IV, 240 min post dose
[21] = AII 0.1 mcg/kg IV, 30 min post dose
[22] = AII 0.1 mcg/kg IV, 60 min post dose
[23] = AII 0.1 mcg/kg IV, 90 min post dose
[24] = AII 0.1 mcg/kg IV, 120 min post dose
[25] = AII 0.1 mcg/kg IV, 180 min post dose
[26] = AII 0.1 mcg/kg IV, 240 min post dose
[27] = AII 0.1 mcg/kg IV, 300 min post dose
[28] = AII 0.05 mcg/kg IV, 300 min post dose

Row | SMILES | inhibition in vivo at 3 mg/kg [1] | inhibition in vivo at 3 mg/kg [2] | inhibition in vivo at 3 mg/kg [3] | inhibition in vivo at 3 mg/kg [4] | inhibition in vivo at 3 mg/kg [5] | inhibition in vivo at 3 mg/kg [6] | inhibition in vivo at 3 mg/kg [7] | inhibition in vivo at 3 mg/kg [8] | inhibition in vivo at 3 mg/kg [9] | inhibition in vivo at 3 mg/kg [10] | inhibition in vivo at 3 mg/kg [11] | inhibition in vivo at 3 mg/kg [12] | inhibition in vivo at 3 mg/kg [13] | inhibition in vivo at 3 mg/kg [14] | Average Change [15] | Average Change [16] | Average Change [17] | Average Change [18] | Average Change [19] | Average Change [20] | further results
1 | CCCCc1nc2ccc([C@H]3[C@@H]4CCCCCC[C@@H]4ON3C)cc2c(=O)n1Cc1ccc(-c2ccccc2-c2nnn[nH]2)cc1 (relative stereo) [Example 52] | 89% | 76% | 80% | 59% | 63% | 59% | 20% | 12% | 27% | 47% | 33% | 15% | 24% | 53% | 4 mmHg | 7.5 mmHg | 28.5 mmHg | 14 mmHg | 30 mmHg | 27.5 mmHg | Average Change [21]: 10 mmHg; Average Change [22]: 17.5 mmHg; Average Change [23]: 20 mmHg; Average Change [24]: 17.5 mmHg; Average Change [25]: 37.5 mmHg; Average Change [26]: 22.5 mmHg; Average Change [27]: 36 mmHg; Change [19]: 30 mmHg; Change [28]: 25 mmHg; Change [21]: 10 mmHg
2 | CCCCc1nc2ccc(C3CC4CCCCN3O4)cc2c(=O)n1Cc1ccc(-c2ccccc2-c2nnn[nH]2)cc1 (stereo not drawn) [Example 18, cis-2-Butyl-6-(9-oxa-1-azabicyclo[4.2.1]non-8-yl)-3-[[2'-(1H-tetrazol-5-yl)[1,1'-biphenyl]-4-yl-methyl-4(3H)-quinazolinone] | 68% | 75% | 53% | 60% | 5% | 0% | 58% | 50% | 63% | 10% | 11% | 45% | 47% | 45% | 15 mmHg | 22.5 mmHg | 25 mmHg | 45 mmHg | 20 mmHg | 17.5 mmHg | Average Change [28]: 42.5 mmHg; Average Change [21]: 12.5 mmHg; Average Change [22]: 20 mmHg; Average Change [23]: 27.5 mmHg; Average Change [24]: 50 mmHg; Average Change [25]: 25 mmHg; Average Change [26]: 45 mmHg; Average Change [27]: 27.5 mmHg
